Here are results for 27 compounds from PMC6519732 (Journal of medicinal chemistry, 2019).

The target in data set [1] is T1, human recombinant HDAC6 (Homo sapiens, UniProt Q9UBN7).
T1 sequence (Q9UBN7 1-1215): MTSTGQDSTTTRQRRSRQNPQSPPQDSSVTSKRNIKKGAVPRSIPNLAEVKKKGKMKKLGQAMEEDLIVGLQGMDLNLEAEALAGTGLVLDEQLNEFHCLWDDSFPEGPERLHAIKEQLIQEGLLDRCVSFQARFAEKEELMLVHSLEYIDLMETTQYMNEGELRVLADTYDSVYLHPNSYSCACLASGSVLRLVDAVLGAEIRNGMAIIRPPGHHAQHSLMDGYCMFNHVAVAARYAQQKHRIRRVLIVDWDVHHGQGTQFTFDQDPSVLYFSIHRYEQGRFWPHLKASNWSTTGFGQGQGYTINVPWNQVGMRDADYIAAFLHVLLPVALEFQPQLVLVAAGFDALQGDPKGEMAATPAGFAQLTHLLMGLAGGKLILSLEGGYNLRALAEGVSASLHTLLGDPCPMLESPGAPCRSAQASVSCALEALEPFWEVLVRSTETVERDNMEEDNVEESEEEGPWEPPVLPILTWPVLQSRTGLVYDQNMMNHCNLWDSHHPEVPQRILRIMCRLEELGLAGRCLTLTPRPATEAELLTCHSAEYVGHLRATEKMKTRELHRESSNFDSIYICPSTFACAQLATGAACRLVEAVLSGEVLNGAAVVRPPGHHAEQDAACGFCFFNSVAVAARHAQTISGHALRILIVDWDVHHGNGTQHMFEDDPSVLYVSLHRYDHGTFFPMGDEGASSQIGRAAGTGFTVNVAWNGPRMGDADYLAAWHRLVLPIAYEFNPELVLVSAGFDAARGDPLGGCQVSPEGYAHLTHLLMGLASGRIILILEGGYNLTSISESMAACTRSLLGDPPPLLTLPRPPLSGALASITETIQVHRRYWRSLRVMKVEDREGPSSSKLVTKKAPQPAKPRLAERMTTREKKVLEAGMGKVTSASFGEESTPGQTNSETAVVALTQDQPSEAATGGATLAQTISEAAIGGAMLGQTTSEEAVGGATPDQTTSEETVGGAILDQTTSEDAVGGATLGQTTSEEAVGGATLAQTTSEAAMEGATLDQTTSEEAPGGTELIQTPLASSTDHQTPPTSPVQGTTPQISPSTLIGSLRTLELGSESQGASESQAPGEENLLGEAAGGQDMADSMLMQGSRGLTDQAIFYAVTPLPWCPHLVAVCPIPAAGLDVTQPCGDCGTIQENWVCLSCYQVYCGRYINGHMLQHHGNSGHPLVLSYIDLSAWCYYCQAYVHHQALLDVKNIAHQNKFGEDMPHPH
It counts as biochemical. The conditions noted are these: for LE, HDAC6 (ligand efficiency): from IC50 in place of Kd, T = 310 K; for SF 1/6, selectivity factor for HDAC6 over HDAC1: IC50(HDAC1)/IC50(HDAC6); for HDAC6 inhibition: concentrations up to 25 μM, data not shown.

The target of data set [2] is human recombinant HDAC1 (Homo sapiens, UniProt Q13547). Briefly: In vitro HDAC1 inhibition, fluorogenic ZMAL assay. It counts as biochemical.
Sequence of human recombinant HDAC1 (Q13547 whole entry): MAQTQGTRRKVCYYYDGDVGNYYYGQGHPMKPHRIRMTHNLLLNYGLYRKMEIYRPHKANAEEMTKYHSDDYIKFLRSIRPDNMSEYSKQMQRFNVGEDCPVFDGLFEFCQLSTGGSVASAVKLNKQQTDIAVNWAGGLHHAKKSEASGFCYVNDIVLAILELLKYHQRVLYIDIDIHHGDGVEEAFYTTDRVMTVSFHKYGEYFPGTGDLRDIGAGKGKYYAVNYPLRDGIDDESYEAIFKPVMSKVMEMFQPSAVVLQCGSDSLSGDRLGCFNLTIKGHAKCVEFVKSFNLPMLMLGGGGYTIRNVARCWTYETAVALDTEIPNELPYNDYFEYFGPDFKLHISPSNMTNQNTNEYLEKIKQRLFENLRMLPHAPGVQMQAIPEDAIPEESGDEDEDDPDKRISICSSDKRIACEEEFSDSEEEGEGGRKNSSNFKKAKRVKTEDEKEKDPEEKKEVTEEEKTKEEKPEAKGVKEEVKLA
Data set [3] can be described thus: Metabolic stability in human liver microsomes. The data set is classed as in vitro ADME. The conditions noted are these: for half-life at 2 μM: human, liver microsomes. (In general: Microsomes from liver hold many membrane-bound enzymes, among them those of drug oxidation.)
The subject of data set [4] is HepaRG cells. Briefly: CellTiter-Blue cell viability assay, HepaRG. The conditions noted are these: 24 h of treatment, highest tested concentration (100 μM). A general note: Resazurin is reduced to fluorescent resorufin, in cell work by metabolically active cells.
In data set [5] the test system is hHDAC6. The conditions noted are these: cited from earlier work.

Consider `O=C(NO)c1ccc(CN2c3ccccc3Sc3ccc(C(F)(F)F)cc32)cc1` [Compound 7d, N-Hydroxy-4-{[2-(trifluoromethyl)-10H-phenothiazin-10-yl]methyl}benzamide], for which the “LE, HDAC6 (ligand efficiency)” value in data set [1] is recorded as 0.37 (kcal/mol)/non-H-Atom.
Usually IC50 stands for the midpoint of a concentration-inhibition curve. For `O=C(NO)c1ccc(CN2c3cccnc3Sc3cccnc32)cc1` [Compound 7l, 4-[(10H-Dipyrido[2,3-b:2’,3’-e][1,4]thiazin-10-yl)methyl]-N-hydroxybenzamide], the IC50 in data set [2] turned out to be 3.39 ± 0.23 µM. In data set [1], the “SF 1/6, selectivity factor for HDAC6 over HDAC1” value (from here on “SF 1/6, selectivity factor”) is given as 242 and the “LE, HDAC6 (ligand efficiency)” value is 0.45 (kcal/mol)/non-H-Atom.
For `O=C(NO)c1ccc(CN2c3ccccc3Sc3nccnc32)cc1` [Compound 7k, 4-[(10H-Benzo[b]pyrazino[2,3-e][1,4]thiazin-10-yl)methyl]-N-hydroxybenzamide], the IC50 in data set [2] turned out to be 3.84 ± 0.13 µM. In data set [1], the “SF 1/6, selectivity factor” value worked out at 226 and the “LE, HDAC6 (ligand efficiency)” value is on record as 0.44 (kcal/mol)/non-H-Atom.
By half-life is commonly meant how long it takes for the measured level to halve. Low values mean fast loss, high ones slow loss. `O=C(NO)c1ccc(CN2c3ccccc3Sc3ccccc32)cc1` [Compound 1a, 4-[(10H-Phenothiazin-10-yl)methyl]-N-hydroxybenzamide]: in data set [3], the “human liver microsomal stability (in words)” value is on record as “moderate stability” and the half-life at 2 μM is over 40 min. In addition, the compound remaining entry in data set [3] (human liver microsomes, after 40 min incubation) is reported as “about 77%”. Besides, the “Viability of HepaRG cells” value in data set [4] is on record as “not affected”.
Regarding `CCCCN(Cc1ccc(C(=O)NO)cc1)C(=O)Nc1ccccc1` [Nexturastat A], the “selectivity over HDAC1” value in data set [5] is recorded as ~ 600 fold.
With `Cn1c(=O)c2c(ncn2C)n(C)c1=O` [Caffeine, reference compound], the half-life at 2 μM in data set [3] was over 40 min.
For the compound `CON(C)C(=O)c1ccc(CN2c3ccccc3Sc3ccccc32)cc1` [Compound 23, 4-[(10H-Phenothiazin-10-yl)methyl]-N-methoxy-N-methylbenzamide], the “activity on HDAC1 (in words)” value in data set [2] was “completely inactive”. In data set [1], the “activity on HDAC6 (in words)” value was “completely inactive”.
In the case of `CN1CCc2c(n(Cc3ccc(C(=O)NO)cc3)c3ccccc23)C1` [Regioisomer of Tubastatin], the “SF 1/6, selectivity factor” value in data set [5] (from published IC50 values) was 3700.
`O=C(NO)c1ccc(CN2c3ccccc3Sc3cc(Cl)nnc32)cc1` [Compound 7q, 4-[(3-Chloro-10H-benzo[b]pyridazino[3,4-e][1,4]thiazin-10-yl)methyl]-N-hydroxybenzamide]: the IC50 in data set [2] is 1.08 ± 0.04 µM. Also, in data set [1], the “LE, HDAC6 (ligand efficiency)” value is reported as 0.42 (kcal/mol)/non-H-Atom.
In the case of `Cc1nc2c(s1)Sc1ccccc1N2Cc1ccc(C(=O)NO)cc1` [Compound 7o, N-Hydroxy-4-[(2-methyl-4H-benzo[b]thiazolo[4,5-e][1,4]thiazin-4-yl)methyl]benzamide], the IC50 in data set [2] was 5.05 ± 0.75 µM. In addition, in data set [1], the “SF 1/6, selectivity factor” value is 136 and the “LE, HDAC6 (ligand efficiency)” value is listed as 0.42 (kcal/mol)/non-H-Atom.
As for `O=C(NO)c1ccc(CN2N=C(Cl)C=C3Sc4ccccc4N=C32)cc1` [Compound 10q, 4-[(3-Chloro-1H-benzo[b]pyridazino[3,4-e][1,4]thiazin-1-yl)methyl]-N-hydroxybenzamide], in data set [2], the IC50 was 4.58 ± 0.73 µM. The “LE, HDAC6 (ligand efficiency)” value in data set [1] is listed as 0.38 (kcal/mol)/non-H-Atom.
Take `CCSc1ccc2c(c1)N(Cc1ccc(C(=O)NO)cc1)c1ccccc1S2` [Compound 7h, 4-{[2-(Ethylthio)-10H-phenothiazin-10-yl]methyl}-N-hydroxybenzamide]: in data set [1], the “LE, HDAC6 (ligand efficiency)” value is reported as 0.38 (kcal/mol)/non-H-Atom.
Regarding `O=C(NO)c1ccc(CCN2c3ccccc3Sc3ccccc32)cc1` [Compound 22, 4-[2-(10H-Phenothiazin-10-yl)ethyl]-N-hydroxybenzamide], in data set [2], the IC50 was found to be 11.7 ± 2.61 µM. Further, in data set [1], the “SF 1/6, selectivity factor” value stood at 86 and the “LE, HDAC6 (ligand efficiency)” value is 0.37 (kcal/mol)/non-H-Atom.
With `O=C(NO)c1ccc(CN2c3ccccc3[S+]([O-])c3ccccc32)cc1` [Compound 7e, N-Hydroxy-4-[(5-oxido-10H-phenothiazin-10-yl)methyl]benzamide], in data set [1], the “LE, HDAC6 (ligand efficiency)” value was 0.39 (kcal/mol)/non-H-Atom.
Turning to `O=C(NO)c1ccc(CN2N=CC=C3Sc4ccccc4N=C32)cc1` [Compound 10p, 4-[(1H-Benzo[b]pyridazino[3,4-e][1,4]thiazin-1-yl)methyl]-N-hydroxybenzamide], in data set [2], the IC50 is 0.75 ± 0.04 µM. The “LE, HDAC6 (ligand efficiency)” value in data set [1] is given as 0.44 (kcal/mol)/non-H-Atom.
With `O=C(CCCCCCNC(=O)c1cnc(N(c2ccccc2)c2ccccc2)nc1)NO` [Ricolinostat], in data set [5] (introduction, literature statement), the “selectivity for HDAC6 relative to class I HDACs” value is on record as “at least 10 fold”.
For the compound `COc1ccc2c(c1)N(Cc1ccc(C(=O)NO)cc1)c1ccccc1S2` [Compound 7g, N-Hydroxy-4-[(2-methoxy-10H-phenothiazin-10-yl)methyl]benzamide], the “LE, HDAC6 (ligand efficiency)” value in data set [1] is listed as 0.42 (kcal/mol)/non-H-Atom.
As to `O=C(O)c1ccc(CN2c3ccccc3Sc3ccccc32)cc1` [Compound 5a, 4-[(10H-Phenothiazin-10-yl)methyl]benzoic acid], in data set [1], the “activity on HDAC6 (in words)” value is “inactive” and the HDAC6 inhibition result was “did not show noteworthy HDAC6 inhibition”.
`O=C(NO)c1ccc(CN2c3ccccc3Sc3ccncc32)cc1` [Compound 7j, 4-[(10H-Benzo[b]pyrido[3,4-e][1,4]thiazin-10-yl)methyl]-N-hydroxybenzamide]: the IC50 in data set [2] is 1.25 ± 0.01 µM. In addition, in data set [1], the “SF 1/6, selectivity factor” value came out at 179 and the “LE, HDAC6 (ligand efficiency)” value is on record as 0.46 (kcal/mol)/non-H-Atom.
On to `CN1CCC2=C(C1)N(Cc1ccc(C(=O)NO)cc1)c1ccccc1S2` [Compound 14j, N-Hydroxy-4-[(2-methyl-1,2,3,4-tetrahydro-10H-benzo[b]pyrido[3,4-e][1,4]thiazin-10-yl)methyl]benzamide], for which the “LE, HDAC6 (ligand efficiency)” value in data set [1] is given as 0.41 (kcal/mol)/non-H-Atom.
As for `O=C(NO)c1ccc(CN2c3ccccc3Sc3ccnnc32)cc1` [Compound 7p, 4-[(10H-Benzo[b]pyridazino[3,4-e][1,4]thiazin-10-yl)methyl]-N-hydroxybenzamide], the IC50 in data set [2] is 1.06 ± 0.08 µM. For the same compound, the “LE, HDAC6 (ligand efficiency)” value in data set [1] is reported as 0.45 (kcal/mol)/non-H-Atom.
For the compound `O=C(O)c1ccc(CN2c3ccncc3Sc3ncccc32)cc1` [Compound 5n, 4-[(5H-Dipyrido[2,3-b:4’,3’-e][1,4]thiazin-5-yl)methyl]benzoic acid], in data set [1], the “activity on HDAC6 (in words)” value was “inactive” and the HDAC6 inhibition entry was “did not show noteworthy HDAC6 inhibition”.
For the compound `O=C(NO)c1ccc(CN2c3ccccc3Sc3ccc(Cl)cc32)cc1` [Compound 7f, 4-[(2-Chloro-10H-phenothiazin-10-yl)methyl]-N-hydroxybenzamide], the “LE, HDAC6 (ligand efficiency)” value in data set [1] was 0.43 (kcal/mol)/non-H-Atom.
`O=C(NO)c1ccc(CC(=O)N(CCO)c2ccccc2)cc1` [HPOB, N-hydroxy-4-(2-[(2-hydroxyethyl)(phenyl)amino]-2-oxoethyl)benzamide]: in data set [5], the “selectivity over HDAC1” value is on record as ~ 50 fold.
Turning to `O=C(NO)c1ccc(CN2c3ccccc3Sc3cccc(Cl)c32)cc1` [Compound 7c, 4-[(1-Chloro-10H-phenothiazin-10-yl)methyl]-N-hydroxybenzamide], the “LE, HDAC6 (ligand efficiency)” value in data set [1] was 0.43 (kcal/mol)/non-H-Atom.
Turning to `O=C(NO)c1ccc(CN2c3ccncc3Sc3ccncc32)cc1` [Compound 7m, 4-[(10H-Dipyrido[3,4-b:3’,4’-e][1,4]thiazin-10-yl)methyl]-N-hydroxybenzamide], the IC50 in data set [2] was 0.79 ± 0.14 µM. The “LE, HDAC6 (ligand efficiency)” value in data set [1] is 0.46 (kcal/mol)/non-H-Atom.
On to `O=C(NO)c1ccc(N2c3ccccc3Sc3ccccc32)cc1` [Compound 18, N-Hydroxy-4-(10H-phenothiazin-10-yl)benzamide], for which, in data set [2], the IC50 came out at 5.87 ± 0.71 µM. Besides, in data set [1], the “SF 1/6, selectivity factor” value was found to be 2 and the “LE, HDAC6 (ligand efficiency)” value is 0.33 (kcal/mol)/non-H-Atom.
